Test results published in patent US20250296938A1, “Compounds that Interact with the Ras Superfamily for the Treatment of Cancers, Inflammatory Diseases, Rasopathies, and Fibrotic Disease” (SHY Therapeutics, LLC, priority 2018, published 2025).

Biological target: T1, KRas G12D mutant (Homo sapiens, UniProt P01116, G12D)
T1 construct: fused on or other part: His tag, used for capture on nickel-coated plates
Test: Ras GTP binding domain inhibition assay (Cy3-GTP/Cy5-GTP competition)
Conditions: 20 μM; with SOS (Table 7A); read-out: KRas G12D mutant + SOS: % inh.
Procedure: (§1) The following method was developed as specific assay for the following proteins: KRas wild type, KRas Q61H mutant, KRas G12C mutant, KRas G12D mutant, HRas wild type, Rac-1, and Rho-A.
(§2) • 25 mM Tris-HCl, pH 7.4 • 27 mM KCl • 137 mM NaCl • 1 mM MgCl2 • 1 mM DTT
(§3) • 50 mM Tris-HCl, pH 7.0 • 1 mM MgCl2 • 1 mM DTT
(§4) The small GTPases proteins: KRas wild type. KRas Q61H mutant, KRas G12C mutant, KRas G12D mutants, HRas wild type, Rac-1, and Rho-A were expressed as His-tagged proteins. In addition, the Guanosine nucleotide Exchange Factor (GEF) Sos protein (residues 556-1049) was expressed as a His-tagged protein. In cells, the guanine nucleotide exchange factor Sos protein promotes activation of Ras proteins by stimulating an exchange of GDP for GTP. The inclusion of Sos to the Ras GTP binding domain inhibition assay may be considered as an alternative representation of physiological cellular conditions for evaluating the inhibitory activity of some of the tested small molecules.
(§5) For the assay, all purified small GTPases proteins were diluted in Buffer-I or Buffer-II to a final concentration of 10-30 μg/mL. 200 μL of each diluted protein was added to a nickel-coated 96-well plate and incubated overnight at 4° C. Then the protein solution was discarded and 200 μL of Buffer-I or Buffer-II was added to each well in the presence of 1% DMSO. Compounds to be tested were added to the protein-coated wells at final concentration of 20 μM, and incubated for 3 hours at room temperature with and without […] of Sos added to the final hour of the incubation. When performing IC50 measurements a serial dilution of all tested concentrations was added. Then Cy3-GTP or Cy5-GTP was added to each well to a final concentration of 100 nM. The labeled GTP was incubated for 45 minutes at room temperature. Following GTP incubation, wells were washed 3× in Buffer-I or Buffer-II and 200 μL of Buffer-I or Buffer-II was added to each well. Following washes, the amount of bound labeled-GTP was measured using a SpectraMax M3 (Molecular Devices).

SMILES	inhibition at 20 µM
COc1cccc(-c2sc3nc(-c4nccn4C)nc(N[C@@H]4CC[C@H](OC)C4)c3c2-c2ccccc2)c1F [drawing 884]	51 to 75%
COc1c(F)cccc1-c1sc2nc(-c3nccn3C)nc(N[C@@H]3CC[C@H](OC)C3)c2c1-c1ccccc1 [drawing 887]	76 to 100%
CO[C@H]1CC[C@@H](Nc2nc(-c3nccn3C)nc3sc(-c4cccc5[nH]ncc45)c(-c4ccccc4)c23)C1 [drawing 889]	51 to 75%
COc1cccc(-c2sc3nc(-c4nccn4C)nc(N[C@@H]4CC[C@H](OC)C4)c3c2C)c1F [drawing 894]	51 to 75%
COc1cccc(-c2sc3nc(-c4nc(C)cn4C)nc(N[C@@H]4CC[C@H](OC)C4)c3c2C)c1F [drawing 896]	26 to 50%
CO[C@H]1CC[C@@H](Nc2nc(-c3nc(C)cn3C)nc3sc(-c4cccc5[nH]ncc45)c(C)c23)C1 [drawing 897]	26 to 50%

Same assay, conditions: 20 μM; with SOS; read-out: KRas G-12D mutant + SOS: % inh.

SMILES	inhibition at 20 µM
COc1nscc1-c1sc2nc(-c3nccn3C)nc(N3CCC(OC)C3)c2c1-c1ccccc1.Cl (centres unmarked)	51 to 75%

Same assay, conditions: 20 μM; without SOS (Table 7A); read-out: KRas G12D mutant: % inh.

SMILES	inhibition at 20 µM
COc1cccc(-c2sc3nc(-c4nccn4C)nc(N[C@@H]4CC[C@H](OC)C4)c3c2-c2ccccc2)c1F [drawing 884]	51 to 75%
COc1c(F)cccc1-c1sc2nc(-c3nccn3C)nc(N[C@@H]3CC[C@H](OC)C3)c2c1-c1ccccc1 [drawing 887]	76 to 100%
CO[C@H]1CC[C@@H](Nc2nc(-c3nccn3C)nc3sc(-c4cccc5[nH]ncc45)c(-c4ccccc4)c23)C1 [drawing 889]	51 to 75%
COc1cccc(-c2sc3nc(-c4nccn4C)nc(N[C@@H]4CC[C@H](OC)C4)c3c2C)c1F [drawing 894]	51 to 75%
COc1cccc(-c2sc3nc(-c4nc(C)cn4C)nc(N[C@@H]4CC[C@H](OC)C4)c3c2C)c1F [drawing 896]	1 to 25%
CO[C@H]1CC[C@@H](Nc2nc(-c3nc(C)cn3C)nc3sc(-c4cccc5[nH]ncc45)c(C)c23)C1 [drawing 897]	26 to 50%

Same assay, conditions: 20 μM; without SOS; read-out: KRas G12D mutant: % inh.

SMILES	inhibition at 20 µM
COc1nscc1-c1sc2nc(-c3nccn3C)nc(N3CCC(OC)C3)c2c1-c1ccccc1.Cl (centres unmarked)	26 to 50%

System: KRas wild type
Test: as above
Parameters: species or system human
Conditions: 20 μM; with SOS
Procedure: as §1, §2, §3, §4, §5

SMILES	KRas wild type + SOS: % inh.
COc1nscc1-c1sc2nc(-c3nccn3C)nc(N3CCC(OC)C3)c2c1-c1ccccc1.Cl (centres unmarked)	D (76-100% inhibition)

Same assay, conditions: 20 μM; with SOS (Table 7A)

SMILES	KRas wild type + SOS: % inh.
COc1cccc(-c2sc3nc(-c4nccn4C)nc(N[C@@H]4CC[C@H](OC)C4)c3c2-c2ccccc2)c1F [drawing 884]	D (76-100% inhibition)
COc1c(F)cccc1-c1sc2nc(-c3nccn3C)nc(N[C@@H]3CC[C@H](OC)C3)c2c1-c1ccccc1 [drawing 887]	D (76-100% inhibition)
CO[C@H]1CC[C@@H](Nc2nc(-c3nccn3C)nc3sc(-c4cccc5[nH]ncc45)c(-c4ccccc4)c23)C1 [drawing 889]	D (76-100% inhibition)
COc1cccc(-c2sc3nc(-c4nccn4C)nc(N[C@@H]4CC[C@H](OC)C4)c3c2C)c1F [drawing 894]	D (76-100% inhibition)
COc1cccc(-c2sc3nc(-c4nc(C)cn4C)nc(N[C@@H]4CC[C@H](OC)C4)c3c2C)c1F [drawing 896]	B (26-50% inhibition)
CO[C@H]1CC[C@@H](Nc2nc(-c3nc(C)cn3C)nc3sc(-c4cccc5[nH]ncc45)c(C)c23)C1 [drawing 897]	B (26-50% inhibition)

Same assay, conditions: 20 μM; without SOS

SMILES	KRas wild type: % inh.
COc1nscc1-c1sc2nc(-c3nccn3C)nc(N3CCC(OC)C3)c2c1-c1ccccc1.Cl (centres unmarked)	B (26-50% inhibition)

Same assay, conditions: 20 μM; without SOS (Table 7A)

SMILES	KRas wild type % inh.
COc1cccc(-c2sc3nc(-c4nccn4C)nc(N[C@@H]4CC[C@H](OC)C4)c3c2-c2ccccc2)c1F [drawing 884]	C (51-75% inhibition)
COc1c(F)cccc1-c1sc2nc(-c3nccn3C)nc(N[C@@H]3CC[C@H](OC)C3)c2c1-c1ccccc1 [drawing 887]	D (76-100% inhibition)
CO[C@H]1CC[C@@H](Nc2nc(-c3nccn3C)nc3sc(-c4cccc5[nH]ncc45)c(-c4ccccc4)c23)C1 [drawing 889]	C (51-75% inhibition)
COc1cccc(-c2sc3nc(-c4nccn4C)nc(N[C@@H]4CC[C@H](OC)C4)c3c2C)c1F [drawing 894]	C (51-75% inhibition)
COc1cccc(-c2sc3nc(-c4nc(C)cn4C)nc(N[C@@H]4CC[C@H](OC)C4)c3c2C)c1F [drawing 896]	A (1-25% inhibition)
CO[C@H]1CC[C@@H](Nc2nc(-c3nc(C)cn3C)nc3sc(-c4cccc5[nH]ncc45)c(C)c23)C1 [drawing 897]	B (26-50% inhibition)

System: KRas G12C mutant
Test: as above
Parameters: species or system human
Conditions: 20 μM; with SOS
Procedure: as §1, §2, §3, §4, §5

SMILES	KRas G12C mutant + SOS: % inh.
COc1nscc1-c1sc2nc(-c3nccn3C)nc(N3CCC(OC)C3)c2c1-c1ccccc1.Cl (centres unmarked)	D (76-100% inhibition)

Same assay, conditions: 20 μM; without SOS

SMILES	KRas G12C mutant: % inh.
COc1nscc1-c1sc2nc(-c3nccn3C)nc(N3CCC(OC)C3)c2c1-c1ccccc1.Cl (centres unmarked)	B (26-50% inhibition)

System: KRas Q61H mutant
Test: as above
Parameters: species or system human
Conditions: 20 μM; with SOS
Procedure: as §1, §2, §3, §4, §5

SMILES	KRas Q61H mutant + SOS: % inh.
COc1nscc1-c1sc2nc(-c3nccn3C)nc(N3CCC(OC)C3)c2c1-c1ccccc1.Cl (centres unmarked)	D (76-100% inhibition)

Same assay, conditions: 20 μM; with SOS (Table 7A)

SMILES	KRas Q61H mutant + SOS: % inh.
COc1cccc(-c2sc3nc(-c4nccn4C)nc(N[C@@H]4CC[C@H](OC)C4)c3c2-c2ccccc2)c1F [drawing 884]	D (76-100% inhibition)
COc1c(F)cccc1-c1sc2nc(-c3nccn3C)nc(N[C@@H]3CC[C@H](OC)C3)c2c1-c1ccccc1 [drawing 887]	D (76-100% inhibition)
CO[C@H]1CC[C@@H](Nc2nc(-c3nccn3C)nc3sc(-c4cccc5[nH]ncc45)c(-c4ccccc4)c23)C1 [drawing 889]	D (76-100% inhibition)
COc1cccc(-c2sc3nc(-c4nccn4C)nc(N[C@@H]4CC[C@H](OC)C4)c3c2C)c1F [drawing 894]	D (76-100% inhibition)
COc1cccc(-c2sc3nc(-c4nc(C)cn4C)nc(N[C@@H]4CC[C@H](OC)C4)c3c2C)c1F [drawing 896]	B (26-50% inhibition)
CO[C@H]1CC[C@@H](Nc2nc(-c3nc(C)cn3C)nc3sc(-c4cccc5[nH]ncc45)c(C)c23)C1 [drawing 897]	B (26-50% inhibition)

Same assay, conditions: 20 μM; without SOS

SMILES	KRas Q61H mutant: % inh.
COc1nscc1-c1sc2nc(-c3nccn3C)nc(N3CCC(OC)C3)c2c1-c1ccccc1.Cl (centres unmarked)	C (51-75% inhibition)

Same assay, conditions: 20 μM; without SOS (Table 7A)

SMILES	KRas Q61H mutant: % inh.
COc1cccc(-c2sc3nc(-c4nccn4C)nc(N[C@@H]4CC[C@H](OC)C4)c3c2-c2ccccc2)c1F [drawing 884]	C (51-75% inhibition)
COc1c(F)cccc1-c1sc2nc(-c3nccn3C)nc(N[C@@H]3CC[C@H](OC)C3)c2c1-c1ccccc1 [drawing 887]	D (76-100% inhibition)
CO[C@H]1CC[C@@H](Nc2nc(-c3nccn3C)nc3sc(-c4cccc5[nH]ncc45)c(-c4ccccc4)c23)C1 [drawing 889]	C (51-75% inhibition)
COc1cccc(-c2sc3nc(-c4nccn4C)nc(N[C@@H]4CC[C@H](OC)C4)c3c2C)c1F [drawing 894]	C (51-75% inhibition)
COc1cccc(-c2sc3nc(-c4nc(C)cn4C)nc(N[C@@H]4CC[C@H](OC)C4)c3c2C)c1F [drawing 896]	A (1-25% inhibition)
CO[C@H]1CC[C@@H](Nc2nc(-c3nc(C)cn3C)nc3sc(-c4cccc5[nH]ncc45)c(C)c23)C1 [drawing 897]	B (26-50% inhibition)
